Target: T1, Δ1198-CFTR (Homo sapiens, UniProt P13569)
T1 construct: NBD2 deletion construct; V1198 replaced with a termination codon
Assay: inside-out macropatch clamp of HEK-293T cells, […] curcumin, order of addition with VX-770
Format: cell-based

T1 sequence (P13569 1-1197, stated change not applied): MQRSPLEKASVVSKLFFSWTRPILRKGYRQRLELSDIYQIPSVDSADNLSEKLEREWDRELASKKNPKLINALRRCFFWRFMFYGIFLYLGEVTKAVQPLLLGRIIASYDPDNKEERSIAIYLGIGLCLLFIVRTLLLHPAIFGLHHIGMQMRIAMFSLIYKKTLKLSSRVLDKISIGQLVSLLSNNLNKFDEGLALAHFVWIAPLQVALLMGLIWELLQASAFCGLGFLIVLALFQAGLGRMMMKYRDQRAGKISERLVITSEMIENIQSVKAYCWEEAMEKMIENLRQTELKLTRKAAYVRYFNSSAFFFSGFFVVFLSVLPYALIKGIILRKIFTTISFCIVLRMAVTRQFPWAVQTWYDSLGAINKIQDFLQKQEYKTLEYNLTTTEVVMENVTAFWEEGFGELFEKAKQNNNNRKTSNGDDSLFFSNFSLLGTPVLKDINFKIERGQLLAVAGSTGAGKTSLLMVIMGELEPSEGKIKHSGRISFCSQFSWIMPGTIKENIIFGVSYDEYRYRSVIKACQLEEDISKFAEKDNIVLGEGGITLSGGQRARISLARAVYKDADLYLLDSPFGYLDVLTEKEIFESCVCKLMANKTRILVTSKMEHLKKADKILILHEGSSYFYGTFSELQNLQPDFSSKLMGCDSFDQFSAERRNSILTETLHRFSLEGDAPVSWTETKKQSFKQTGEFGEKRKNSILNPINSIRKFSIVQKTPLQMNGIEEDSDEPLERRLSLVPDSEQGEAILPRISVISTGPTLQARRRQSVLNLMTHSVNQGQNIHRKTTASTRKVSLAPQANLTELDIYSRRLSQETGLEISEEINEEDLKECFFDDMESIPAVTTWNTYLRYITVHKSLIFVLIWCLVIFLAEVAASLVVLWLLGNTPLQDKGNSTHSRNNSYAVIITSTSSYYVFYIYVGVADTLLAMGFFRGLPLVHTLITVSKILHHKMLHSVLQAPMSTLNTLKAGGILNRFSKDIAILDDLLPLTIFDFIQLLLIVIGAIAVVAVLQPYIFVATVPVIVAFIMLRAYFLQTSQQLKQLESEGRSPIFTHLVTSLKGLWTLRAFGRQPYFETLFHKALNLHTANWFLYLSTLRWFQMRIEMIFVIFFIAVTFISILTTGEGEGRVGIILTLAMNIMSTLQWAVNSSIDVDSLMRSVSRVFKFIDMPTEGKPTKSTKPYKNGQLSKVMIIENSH

With `COc1cc(/C=C/C(=O)CC(=O)/C=C/c2ccc(O)c(OC)c2)ccc1O` [curcumin] as the molecule, how does the “inside-out macropatch clamp of HEK-293T cells, 30 uM curcumin, order of addition” value read?
Its value is “Mean percent stimulation of W1282X-CFTR or Δ1198-CFTR current by each compound alone”.

Source: article PMC4805204, “Robust Stimulation of W1282X-CFTR Channel Activity by a Combination of Allosteric Modulators” (PLoS ONE, 2016)
